Data: US10308615B2, “Heterocyclic compounds as inhibitors of Vanin-1 enzyme” (Pfizer Inc., priority 2015, dated 2019)

How the values were obtained:
Assay type in all cases: biochemical
human vanin-1 [1] = molecular target: T1, human vanin-1 (Homo sapiens (Human), UniProt O95497); assay: Human Vanin-1 Enzyme Assay 1; conditions: 25 pM human vanin-1, 50 uM pantetheine 7-amino-4-trifluoromethylcoumarin, 30 min preincubation, 60 min
Outline: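 Purified His6/FLAG-tagged extracellular domain of human vanin-1, secreted from CHO cells, at 25 pM final in 50 mM Tris-HCl pH 8.0, 50 mM KCl, 0.005% Brij-35, 1.6 mM cysteamine, 0.5% DMSO. Inhibitor preincubated 30 min at room temperature; 50 uM pantetheine-AFC substrate, 60 min, fluorescence at 405/510 nm; 11-point four-fold dilution series.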

human vanin-1 [2] = molecular target: T1, human vanin-1; assay: Human Vanin-1 Enzyme Assay 2; conditions: 1 nM human vanin-1, 10 uM substrate, 45 min
Procedure: Human Vanin-1 Enzyme Assay 2.
The in vitro assay measures enzymatic cleavage of the fluorescently-labeled vanin substrate, pantetheine 7-amino-4-trifluoromethylcoumarin, by human vanin-1.
The vanin-1 protein was prepared in-house from a construct expressing the extracellular domain of human vanin-1 (GenBank ID NM_004666) preceded N-terminally by the honey bee melittin signal peptide, a GSG linker sequence, a His6X tag and a FLAG tag. The secreted, soluble enzyme was purified from the conditioned medium from a CHO cell line stably expressing the resulting protein. Enzyme purification was performed through sequential Ni NTA and size-exclusion chromatography steps.
On the day of the assay, dose response plates were prepared by diluting the inhibitors in DMSO at compound concentration 100-fold the final in-assay concentration. Concentration series were prepared by serially diluting in DMSO in a half-log series for a total of 11 data points. Intermediate compound plates containing compound in 10% DMSO were then created by diluting the compounds 10-fold in assay buffer consisting of 50 mM Tris-HCl pH=8.0, 50 mM KCl, 0.005% Brij-35 and 1.5 mM cysteamine. To begin the assay 3 μL were transferred from the intermediate compound plate to the assay plate.
A working solution of human vanin-1 was prepared by diluting the enzyme stock to 1.25 nM in assay buffer. Next, 24 μL of the vanin-1 working solution were transferred to the assay plate. The enzyme reaction was then initiated by the addition of 3 μL of 100 μM pantetheine 7-amino-4-trifluoromethylcoumarin prepared in assay buffer. The final concentrations in the assay were 1 nM human vanin-1 and 10 uM substrate. The final concentration of DMSO was 1%. The assay plates were incubated for 45 minutes and before they were read on a Spectramax M5 using a 405 nm excitation wavelength and a 505 nm emission wavelength for detection.

human vanin-1 [3] = molecular target: T1, human vanin-1; assay: Human Vanin-1 Enzyme Assay 3; conditions: 2 nM human vanin-1, 10 uM substrate, 15 min
Outline: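 His/FLAG-tagged extracellular domain of human vanin-1 from CHO cells, used at 2 nM final, with 10 uM pantetheine-AFC substrate. Buffer: 50 mM Tris-HCl pH 8.0, 50 mM KCl, 0.005% Brij-35, 1.5 mM cysteamine, 1% DMSO. 15 min at room temperature; fluorescence read at 405/505 nm across an 11-point 2-fold dilution series.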

T1 sequence (O95497 22-491): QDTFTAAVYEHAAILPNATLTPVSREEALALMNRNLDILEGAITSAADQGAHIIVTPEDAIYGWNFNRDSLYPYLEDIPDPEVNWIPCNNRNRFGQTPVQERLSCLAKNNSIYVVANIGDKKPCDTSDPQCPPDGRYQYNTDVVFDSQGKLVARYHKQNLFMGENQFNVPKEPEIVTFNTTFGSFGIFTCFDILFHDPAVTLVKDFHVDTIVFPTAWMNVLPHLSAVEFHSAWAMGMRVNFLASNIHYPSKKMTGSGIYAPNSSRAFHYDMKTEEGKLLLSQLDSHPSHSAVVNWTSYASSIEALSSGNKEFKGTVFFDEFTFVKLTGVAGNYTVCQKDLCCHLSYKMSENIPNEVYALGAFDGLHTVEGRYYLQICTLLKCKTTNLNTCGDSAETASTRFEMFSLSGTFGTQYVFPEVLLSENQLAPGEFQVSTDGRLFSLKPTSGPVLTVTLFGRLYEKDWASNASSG

## O=C(c1ccccc1)c1cnc(NCc2cccnc2)nc1 [Example 34, phenyl{2-[(pyridin-3-ylmethyl)amino]pyrimidin-5-yl}methanone]
Human vanin-1 [1]
  IC50: 0.0537 µM
Human vanin-1 [2]
  IC50: 0.107 µM
Human vanin-1 [3]
  IC50: 0.0693 µM

## O=C(c1cnc(NCc2cccnc2)nc1)c1cccc(C(F)(F)F)c1 [Example 12, {2-[(pyridin-3-ylmethyl)amino]pyrimidin-5-yl}[3-(trifluoromethyl)phenyl]methanone]
Human vanin-1 [1]
  IC50: 0.0019 µM
Human vanin-1 [2]
  IC50: 0.0029 µM
Human vanin-1 [3]
  IC50: 0.0005 µM

## N#Cc1cccc(C(=O)c2cnc(NCc3cccnc3)nc2)c1 [Example 118, 3-({2-[(pyridin-3-ylmethyl)amino]pyrimidin-5-yl}carbonyl) benzonitrile]
Human vanin-1 [1]
  IC50: 0.004 µM
Human vanin-1 [2]
  IC50: 0.0112 µM
Human vanin-1 [3]
  IC50: 0.0046 µM

## O=C(O)c1ccc(CNc2ncc(C(=O)c3ccc(F)c(F)c3)cn2)cc1 [Example 49, 4-({[5-(3,4-difluorobenzoyl)pyrimidin-2-yl]amino}methyl) benzoic acid]
Human vanin-1 [1]
  IC50: 5.69 µM
Human vanin-1 [2]
  IC50: > 7.62 µM
Human vanin-1 [3]
  IC50: 0.112 µM

## N#Cc1cccc(C(=O)c2cnc(NC3(c4ccccc4)CC3)nc2)c1 [Example 65, 3-({2-[(1-phenylcyclopropyl)amino]pyrimidin-5-yl}carbonyl) benzonitrile]
Human vanin-1 [1]
  IC50: 0.0188 µM
Human vanin-1 [2]
  IC50: 0.0221 µM
Human vanin-1 [3]
  IC50: 0.012 µM

## O=C(c1cnc(NCc2cccnn2)nc1)c1cccc(C(F)(F)F)c1 [Example 67, {2-[(pyridazin-3-ylmethyl)amino]pyrimidin-5-yl}[3-(trifluoromethyl)phenyl]methanone]
Human vanin-1 [2]
  IC50: 0.0479 µM
Human vanin-1 [3]
  IC50: 0.0816 µM

## O=C(c1cnc(NCc2cccnc2)nc1)c1ccccc1F [Example 15, (2-fluorophenyl){2-[(pyridin-3-ylmethyl)amino]pyrimidin-5-yl}methanone]
Human vanin-1 [1]
  IC50: 0.329 µM
Human vanin-1 [2]
  IC50: 0.0924 µM
Human vanin-1 [3]
  IC50: 0.17 µM

## Cc1cccc(C(=O)c2cnc(NCc3ccc(C(N)=O)cc3)nc2)c1 [Example 23, 4-({[5-(3-methylbenzoyl)pyrimidin-2-yl]amino}methyl) benzamide]
Human vanin-1 [1]
  IC50: 0.178 µM
Human vanin-1 [2]
  IC50: 0.0987 µM
Human vanin-1 [3]
  IC50: 0.16 µM

## O=C(c1ccccc1)c1cnc(NCc2cnccn2)nc1 [Example 116, phenyl{2-[(pyrazin-2-ylmethyl)amino]pyrimidin-5-yl}methanone]
Human vanin-1 [1]
  IC50: 0.419 µM
Human vanin-1 [2]
  IC50: 0.561 µM
Human vanin-1 [3]
  IC50: 0.321 µM

## COc1cccc(C(=O)c2cnc(NCc3ccc(F)cc3)nc2)c1 [Example 37, {2-[(4-fluorobenzyl)amino]pyrimidin-5-yl}(3-methoxyphenyl) methanone]
Human vanin-1 [2]
  IC50: 0.226 µM
Human vanin-1 [3]
  IC50: 0.0772 µM

## CS(=O)(=O)c1cccc(C(=O)c2cnc(NCc3ccc(C(N)=O)cc3)nc2)c1 [Example 125, 4-[({5-[3-(methylsulfonyl)benzoyl]pyrimidin-2-yl}amino)methyl] benzamide]
Human vanin-1 [2]
  IC50: 0.0219 µM
Human vanin-1 [3]
  IC50: > 1.25 µM

## N#Cc1cccc(C(=O)c2ccc(NCc3cncnc3)nc2)c1 [Example 140, 3-({6-[(pyrimidin-5-ylmethyl)amino]pyridin-3-yl}carbonyl) benzonitrile]
Human vanin-1 [1]
  IC50: 0.144 µM
Human vanin-1 [2]
  IC50: 0.0644 µM

## NC(=O)c1cccc(C(=O)c2cnc(NCc3cncnc3)nc2)c1 [Example 136, 3-({2-[(pyrimidin-5-ylmethyl)amino]pyrimidin-5-yl}carbonyl) benzamide]
Human vanin-1 [1]
  IC50: 0.187 µM
Human vanin-1 [2]
  IC50: 0.137 µM

## N#Cc1cc(C(=O)c2cnc(NCc3cncnc3)nc2)ccc1Cl [Example 134, 2-chloro-5-({2-[(pyrimidin-5-ylmethyl)amino]pyrimidin-5-yl}carbonyl) benzonitrile]
Human vanin-1 [1]
  IC50: 0.259 µM
Human vanin-1 [2]
  IC50: 0.1 µM

## Cn1cc(C(=O)c2cnc(NCc3cccnc3)nc2)cn1 [Example 103, (1-methyl-1H-pyrazol-4-yl){2-[(pyridin-3-ylmethyl)amino]pyrimidin-5-yl}methanone]
Human vanin-1 [2]
  IC50: 0.563 µM
Human vanin-1 [3]
  IC50: 0.381 µM

## Cc1ccc(C(=O)c2cnc(NCc3cncnc3)nc2)cc1C#N [Example 132, 2-methyl-5-({2-[(pyrimidin-5-ylmethyl)amino]pyrimidin-5-yl}carbonyl) benzonitrile]
Human vanin-1 [1]
  IC50: 0.126 µM
Human vanin-1 [2]
  IC50: 0.0982 µM

## COc1ccc(C(=O)c2cnc(NC(C)c3cncnc3)nc2)cc1 (stereo not drawn) [Example 138, (4-methoxyphenyl) (2-{[1-(pyrimidin-5-yl)ethyl]amino}pyrimidin-5-yl)methanone]
Human vanin-1 [1]
  IC50: 0.194 µM
Human vanin-1 [2]
  IC50: 0.437 µM

## COc1cccc(C(=O)c2cnc(NCc3ccc(N4CCN(C)CC4)cc3)nc2)c1 [Example 154, (3-methoxyphenyl) (2-{[4-(4-methylpiperazin-1-yl)benzyl]amino}pyrimidin-5-yl)methanone]
Human vanin-1 [2]
  IC50: 6.41 µM
Human vanin-1 [3]
  IC50: 3.79 µM

## N#Cc1cccc(C(=O)c2cnc(NC3(c4ccccc4)CCC3)nc2)c1 [Example 129, 3-({2-[(1-phenylcyclobutyl)amino]pyrimidin-5-yl}carbonyl) benzonitrile]
Human vanin-1 [1]
  IC50: 0.0099 µM
Human vanin-1 [2]
  IC50: 0.0124 µM

## Cn1ncc2ccc(C(=O)c3cnc(NCc4cncnc4)nc3)cc21 [Example 137, (1-methyl-1H-indazol-6-yl){2-[(pyrimidin-5-ylmethyl)amino]pyrimidin-5-yl}methanone]
Human vanin-1 [1]
  IC50: 0.501 µM
Human vanin-1 [2]
  IC50: 1.01 µM

## CC(Nc1ncc(C(=O)c2cccc(C#N)c2)cn1)c1ccc(C(N)=O)cc1 (single isomer, unassigned; (+)) [Example 10, (+)-4-(1-{[5-(3-cyanobenzoyl)pyrimidin-2-yl]amino}ethyl)benzamide]
Human vanin-1 [1]
  IC50: > 20 µM
Human vanin-1 [2]
  IC50: > 10 µM

## N#Cc1cc(C(=O)c2cnc(NCc3cncnc3)nc2)ccc1F [Example 135, 2-fluoro-5-({2-[(pyrimidin-5-ylmethyl)amino]pyrimidin-5-yl}carbonyl) benzonitrile]
Human vanin-1 [1]
  IC50: 0.0484 µM
Human vanin-1 [2]
  IC50: 0.0683 µM

## Cn1ncc2cc(C(=O)c3cnc(NCc4cncnc4)nc3)ccc21 [Example 159, (1-methyl-1H-indazol-5-yl){2-[(pyrimidin-5-ylmethyl)amino]pyrimidin-5-yl}methanone]
Human vanin-1 [1]
  IC50: 2.75 µM
Human vanin-1 [2]
  IC50: 3.08 µM

## O=C(c1cnc(NCc2cncnc2)nc1)c1ccc2c(c1)OCCO2 [Example 145, 2,3-dihydro-1,4-benzodioxin-6-yl{2-[(pyrimidin-5-ylmethyl)amino]pyrimidin-5-yl}methanone]
Human vanin-1 [1]
  IC50: 0.329 µM
Human vanin-1 [2]
  IC50: 0.486 µM

## N#Cc1cccc(C(=O)c2cnc(NCC3CCOCC3)nc2)c1 [Example 163, 3-({2-[(tetrahydro-2H-pyran-4-ylmethyl)amino]pyrimidin-5-yl}carbonyl) benzonitrile]
Human vanin-1 [1]
  IC50: 2.88 µM
Human vanin-1 [2]
  IC50: 2.23 µM

## O=C(c1cnc(NCc2cncnc2)nc1)c1cccc(C(F)(F)F)c1 [Example 119, {2-[(pyrimidin-5-ylmethyl)amino]pyrimidin-5-yl}[3-(trifluoromethyl)phenyl]methanone]
Human vanin-1 [2]
  IC50: 0.0113 µM
Human vanin-1 [3]
  IC50: 0.0061 µM

## CN1CCC(CNc2ncc(C(=O)c3cccc(C#N)c3)cn2)CC1 [Example 164, 3-[(2-{[(1-methylpiperidin-4-yl)methyl]amino}pyrimidin-5-yl)carbonyl] benzonitrile]
Human vanin-1 [1]
  IC50: 1.81 µM
Human vanin-1 [2]
  IC50: 8.57 µM

## CS(=O)(=O)c1cccc(C(=O)c2ccc(NCc3cncnc3)nc2)c1 [Example 19, [3-(methylsulfonyl)phenyl]{6-[(pyrimidin-5-ylmethyl)amino]pyridin-3-yl}methanone]
Human vanin-1 [1]
  IC50: 1.44 µM
Human vanin-1 [2]
  IC50: 0.0288 µM

## N#Cc1cccc(C(=O)c2cnc(NCc3cnc(N)nc3)nc2)c1 [Example 4, 3-[(2-{[(2-aminopyrimidin-5-yl)methyl]amino}pyrimidin-5-yl)carbonyl]benzonitrile]
Human vanin-1 [1]
  IC50: 0.0224 µM
Human vanin-1 [2]
  IC50: 0.021 µM

## CS(=O)(=O)c1cccc(C(=O)c2cnc(NCc3cccnc3)nc2)c1 [Example 13, [3-(methylsulfonyl)phenyl]{2-[(pyridin-3-ylmethyl)amino]pyrimidin-5-yl}methanone]
Human vanin-1 [2]
  IC50: 0.002 µM
Human vanin-1 [3]
  IC50: > 0.0261 µM

## COc1cccc(C(=O)c2cnc(NC3(c4cncnc4)CC3)nc2)c1 [Example 18, (3-methoxyphenyl)(2-{[1-(pyrimidin-5-yl)cyclopropyl]amino}pyrimidin-5-yl)methanone]
Human vanin-1 [1]
  IC50: 0.0265 µM
Human vanin-1 [2]
  IC50: 0.0123 µM

## N#Cc1cccc(C(=O)c2cnc(NCc3cc[nH]c(=O)c3)nc2)c1 [Example 72, 3-[(2-{[(2-oxo-1,2-dihydropyridin-4-yl)methyl]amino}pyrimidin-5-yl)carbonyl] benzonitrile]
Human vanin-1 [1]
  IC50: 0.188 µM
Human vanin-1 [2]
  IC50: 0.0862 µM
